Values after ≈ are worked out from the molar mass of the structure shown. Like-named read-outs stand apart in the source and are kept apart here.
Key:
[1] = system: Fusarium graminearum; test: microbe, parasite or virus in culture; format: cell-based; conditions: for MIC: Fusarium graminearum, read-out: MIC (growth inhibition)
[2] = system: Rhodotorula pilimanae; test: Disk diffusion growth inhibitory assay; format: cell-based; set-up: Relative Activity (zone of inhibition diameter): key: +++, considerable activity; ++, moderate activity; −−−, no activity
[3] = system: Azole-resistant Candida albicans ATCC 10231; test: Microdilution checkerboard assay of K20 and azoles; format: cell-based; conditions: for MIC: Candida albicans, ATCC10231, read-out: MIC, azole alone; for MIC of azole in combination with K20: combined with K20; for Effect (drug interaction class by FICI) / FICI (Fractional Inhibitory Concentration Index): the row's azole combined with K20
[4] = system: Rhodotorula pilimanae; test: microbe, parasite or virus in culture; format: cell-based; conditions: Rhodotorula mucilaginosa
[5] = system: Azole-resistant Candida albicans ATCC 10231; test: Disk diffusion test for synergistic inhibition by itraconazole and K20; format: cell-based
[6] = system: Chinese Hamster Ovary (CHO) cells (line 1-15); format: cell-based; conditions: 3.7 μg mL^−1
Procedure: Method: […] The cells were transferred into sterile 50 mL Falcon conical plastic tubes containing 10 mL of the medium at a cell density of 2.5×10^5 cells mL^-1. […] The suspensions were incubated with continuous agitation for 48 h at 37° C. with 5% CO2 in a humidified incubator. After 24 and 48 h, lmL portions of the cell culture suspensions (drug treated or untreated) were transferred to Beckman Coulter Vi-Cell XR cups and mixed with Trypan Blue to determine cell counts and viability in a Beckman Coulter Vi-Cell counter.

[7] = system: Micrococcus luteus; test: Bacterial MIC test in trypticase soy broth; format: cell-based; conditions: 35° C., 12-18 hrs
Procedure: (§1) For purposes of the experiments discussed in this paragraph, the MIC is defined as the lowest concentration of compound needed to inhibit the growth of bacteria. A solution of a selected bacterium was inoculated into trypticase soy broth (Difco, B D, Franklin Lakes, N.J., USA), at 35° C. and incubated for 1-2 hours. […] The 96-well plate was incubated at 35° C. for 12-18 hrs. The MIC tests were repeated at least three times.

[8] = system: Escherichia coli B; test: Bacterial MIC test in trypticase soy broth; format: cell-based; conditions: 35° C., 12-18 hrs
Procedure: as §1

[9] = system: Fusarium graminearum; format: cell-based; conditions: disk diffusion, PDA-CA medium
[10] = system: Penicillium spp; format: cell-based; set-up: key to the marks not given beside the values; further: key: +++, considerable activity; ++, moderate activity; −−−, no activity
[11] = system: Rhizopus stolonifer; test: Disk diffusion growth inhibitory assay; format: cell-based; set-up: key: +++, considerable activity; ++, moderate activity; −−−, no activity; conditions: PDA-CA medium
[12] = system: Fusarium oxysporum; test: Disk diffusion growth inhibitory assay; format: cell-based; set-up: key: +++, considerable activity; ++, moderate activity; −−−, no activity; conditions: PDA-CA medium
[13] = system: Azole-resistant Candida albicans ATCC 10231; test: Time-kill curves of itraconazole and K20; conditions: K20 alone, 32 μg mL^−1
Procedure: Method: Strain Candida albicans ATCC 10231 was prepared at an inoculum size of 10^5 c.f.u. mL^−1 in PDB-CA medium. The drug concentrations used were 32 μg mL^−1 for K20 and 0.18 μg mL^−1 for itraconazole. At designated times (0, 3, 6, 9, 24 and 48 h after incubation), 100 μL aliquots were removed from each solution and serially diluted 10-fold in sterile water. One hundred μL volumes of each dilution were streaked on agar surfaces of potato dextrose agar plates to allow growth. Colony counts were determined after incubation for 48 h. The experiment was performed triplicate.

[14] = system: Saccharomyces cerevisiae W303C; format: cell-based; set-up: key to the marks not given beside the values; further: key: +++, considerable activity; ++, moderate activity; −−−, no activity
[15] = system: Ulocladium spp.; test: Disk diffusion growth inhibitory assay; format: cell-based; set-up: key: +++, considerable activity; ++, moderate activity; −−−, no activity; conditions: PDA-CA medium
[16] = system: Fusarium culmorum; format: cell-based; set-up: key to the marks not given beside the values; further: key: +++, considerable activity; ++, moderate activity; −−−, no activity
[17] = system: Cladosporium cladosporioides; format: cell-based; set-up: key to the marks not given beside the values; further: key: +++, considerable activity; ++, moderate activity; −−−, no activity
[18] = system: Microdochium nivale; format: cell-based; set-up: key to the marks not given beside the values; further: key: +++, considerable activity; ++, moderate activity; −−−, no activity
[19] = system: Mucor haemalis; test: Disk diffusion growth inhibitory assay; format: cell-based; set-up: key: +++, considerable activity; ++, moderate activity; −−−, no activity; conditions: PDA-CA medium
[20] = system: Candida albicans ATCC 10231; test: Disk diffusion growth inhibitory assay; format: cell-based; set-up: key: +++, considerable activity; ++, moderate activity; −−−, no activity; conditions: PDA-CA medium
[21] = system: Staphylococcus aureus ATCC 6538; test: Disk diffusion growth inhibitory assay; format: cell-based; set-up: key to the marks not given beside the values; conditions: PDA-CA medium
[22] = system: Micrococcus luteus; test: Disk diffusion growth inhibitory assay; format: cell-based; set-up: key to the marks not given beside the values; conditions: PDA-CA medium
[23] = system: Escherichia coli TG1; format: cell-based; set-up: key to the marks not given beside the values; further: key: +++, considerable activity; ++, moderate activity; −−−, no activity

Molecule `CCCCCCS(=O)(=O)OC[C@H]1OC(O[C@@H]2C(N)CC(N)C(O[C@H]3OC(CN)[C@@H](O)[C@H](O)C3O)[C@@H]2O)[C@H](O)[C@H](N)C1O` (stereo partly drawn) [K22, 6″-O-hexanesulfonylkanamycin A] has an MIC [1] of 31.3 µg/mL (≈ 49.5 µM).
With `CCCCCCCCNC[C@H]1OC(O[C@@H]2C(N)CC(N)C(O[C@H]3OC(CN)[C@@H](O)[C@H](O)C3O)[C@@H]2O)[C@H](O)[C@H](N)C1O` (stereo partly drawn) [K17, 6″-deoxy-6″-octylaminokanamycin A] the “activity in inhibition zone assay” value ([2]; against Rhodotorula pilimanae, result in words) was “Not determined. Only inhibition zone assay and not active against Rhodotorula pilimanae”.
With `Clc1ccc(C(Cn2ccnc2)OCc2ccsc2Cl)c(Cl)c1` (stereo not drawn) [tioconazole] the MIC ([3]; checkerboard, PDB-CA) was 0.25 µg/mL, the “MIC of azole in combination with K20” value ([3]; checkerboard) was 0.03 µg/mL and the “Effect (drug interaction class by FICI)” value [3] was “synergy”. For the same molecule, the “FICI (Fractional Inhibitory Concentration Index)” value [3] was 0.25.
In the case of `Clc1ccccc1C(c1ccccc1)(c1ccccc1)n1ccnc1` [chlotrimazole], the “MIC, azole alone” value ([3]; checkerboard, PDB-CA) is reported as 1.25 µg/mL, the “MIC of azole in combination with K20” value ([3]; checkerboard) is reported as 0.15 µg/mL and the “Effect (drug interaction class by FICI)” value [3] is reported as “synergy”. The “FICI (Fractional Inhibitory Concentration Index)” value [3] was 0.18.
`CCCCCCCC(=O)OC[C@H]1OC(O[C@@H]2C(N)CC(N)C(O[C@H]3OC(CN)[C@@H](O)[C@H](O)C3O)[C@@H]2O)[C@H](O)[C@H](N)C1O` (stereo partly drawn) [K05, 6″-O-octanoylkanamycin A] was tested, and the MIC [1] was over 62.5 µg/mL and the “concentration giving no pigmentation” value ([1]; against Fusarium graminearum) was 31.25 µg/mL.
With `COC(=O)N(OC)c1ccccc1COc1ccn(-c2ccc(Cl)cc2)n1` [pyraclostrobin] the MIC ([3]; checkerboard, PDB-CA) was 6 µg/mL, the “MIC of azole in combination with K20” value ([3]; checkerboard) was 0.75 µg/mL and the “Effect (drug interaction class by FICI)” value [3] was “synergy”. For the same molecule, the “FICI (Fractional Inhibitory Concentration Index)” value [3] was 0.25.
In the case of `CCCCCCCCSC[C@H]1OC(O[C@@H]2C(N)CC(N)C(O[C@H]3OC(CN)[C@@H](O)[C@H](O)C3O)[C@@H]2O)[C@H](O)[C@H](N)C1O` (stereo partly drawn) [K18, 6″-deoxy-6″octylthiokanamycin A], the MIC [1] is reported as 15.6 µg/mL (≈ 25.5 µM) and the MIC [4] is reported as 62.5 µg/mL (≈ 102 µM).
For `CC1(C)CCC(Cc2ccc(Cl)cc2)C1(O)Cn1cncn1` (stereo not drawn) [metconazole], the MIC ([3]; checkerboard, PDB-CA) was 2.5 µg/mL, the “MIC of azole in combination with K20” value ([3]; checkerboard) was 0.15 µg/mL and the “Effect (drug interaction class by FICI)” value [3] was “synergy”. The “FICI (Fractional Inhibitory Concentration Index)” value [3] was 0.12.
In the case of `CCC(C)n1ncn(-c2ccc(N3CCN(c4ccc(OCC5COC(Cn6cncn6)(c6ccc(Cl)cc6Cl)O5)cc4)CC3)cc2)c1=O` (stereo not drawn) [itraconazole], the “Zone of growth inhibition / fungicidal activity” value ([5]; ITC alone, 0.5 μg mL^−1 per disc) is reported as “no fungicidal activities”, the MIC ([3]; checkerboard, PDB-CA) is reported as over 3 µg/mL and the “MIC of azole in combination with K20” value ([3]; checkerboard) is reported as 0.18 µg/mL. The “Effect (drug interaction class by FICI)” value [3] was “synergy”, the “FICI (Fractional Inhibitory Concentration Index)” value [3] was 0.31 and the “decrease in cell viability” value [6] was 63%.
In the case of `Cc1ccc(S(=O)(=O)OC[C@H]2OC(O[C@@H]3C(N)CC(N)C(O[C@H]4OC(CN)[C@@H](O)[C@H](O)C4O)[C@@H]3O)[C@H](O)[C@H](N)C2O)cc1` (stereo partly drawn) [K19, 6″-O-toluenesulfonylkanamycin A], the “inhibition of Rhodotorula” value ([2]; result in words, assay type (MIC or disk diffusion) not stated) is reported as “relatively little but nevertheless some inhibition of Rhodotorula”.
In the case of `CC[C@@H]([C@H](C)O)n1ncn(-c2ccc(N3CCN(c4ccc(OC[C@@H]5CO[C@@](Cn6cncn6)(c6ccc(F)cc6F)C5)cc4)CC3)cc2)c1=O` [posaconazole], the MIC ([3]; checkerboard, PDB-CA) is reported as over 0.75 µg/mL, the “MIC of azole in combination with K20” value ([3]; checkerboard) is reported as 0.09 µg/mL and the “Effect (drug interaction class by FICI)” value [3] is reported as “synergy”. For the same molecule, the “FICI (Fractional Inhibitory Concentration Index)” value [3] was 0.24.
In the case of `NC[C@H]1O[C@H](O[C@H]2[C@H](O)[C@@H](O[C@H]3O[C@H](CO)[C@@H](O)[C@H](N)[C@H]3O)[C@H](N)C[C@@H]2N)[C@H](N)[C@@H](O)[C@@H]1O` [kanamycin B], the MIC [7] is reported as 0.98 µg/mL (≈ 2.03 µM) and the MIC [8] is reported as 1.95 µg/mL (≈ 4.03 µM).
In the case of `CC(=O)N1CCN(c2ccc(OCC3COC(Cn4ccnc4)(c4ccc(Cl)cc4Cl)O3)cc2)CC1` (stereo not drawn) [ketoconazole], the MIC ([3]; checkerboard, PDB-CA) is reported as 24 µg/mL, the “MIC of azole in combination with K20” value ([3]; checkerboard) is reported as 1.5 µg/mL and the “Effect (drug interaction class by FICI)” value [3] is reported as “synergy”. The “FICI (Fractional Inhibitory Concentration Index)” value [3] was 0.31.
In the case of `C[C@@H](c1ncncc1F)[C@](O)(Cn1cncn1)c1ccc(F)cc1F` [voriconazole], the MIC ([3]; checkerboard, PDB-CA) is reported as over 1 µg/mL, the “MIC of azole in combination with K20” value ([3]; checkerboard) is reported as 0.125 µg/mL and the “Effect (drug interaction class by FICI)” value [3] is reported as “synergy”. The “FICI (Fractional Inhibitory Concentration Index)” value [3] was 0.15.
In the case of `CCCCCCCCS(=O)(=O)OCC1OC(OC2C(N)CC(N)C(OC3OC(CN)C(O)C(O)C3O)C2O)C(O)C(N)C1O` (stereo not drawn) [K20, 6″-O-octanesulfonylkanamycin A], the “Relative Activity (zone of inhibition diameter)” value [9] is reported as “^b+++”, the “Relative Activity (zone of inhibition diameter)” value [10] is reported as “++” and the “Relative Activity (zone of inhibition diameter)” value [11] is reported as “+++”. The MIC [7] was 62.5 µg/mL (≈ 94.6 µM), the MIC [8] was 250 µg/mL (≈ 378 µM) and the “Relative Activity (zone of inhibition diameter)” value [12] was “++”. The time-kill effect [13] was “the same as the control”, the “Relative Activity (zone of inhibition diameter)” value [14] was “++” and the “Relative Activity (zone of inhibition diameter)” value [15] was “+++”. For the same molecule, the “Relative Activity (zone of inhibition diameter)” value [16] was “+++”, the “Zone of growth inhibition / fungicidal activity” value ([5]; K20 alone, 32 μg mL^−1 per disc) was “no fungicidal activities” and the “Relative Activity (zone of inhibition diameter)” value [2] was “+++”. For the same molecule, the “Relative Activity (zone of inhibition diameter)” value [17] was “++”, the “Relative Activity (zone of inhibition diameter)” value [18] was “+++” and the “Relative Activity (zone of inhibition diameter)” value [19] was “+++”. The “Relative Activity (zone of inhibition diameter)” value [20] was “++”, the “MIC, K20 alone” value ([3]; checkerboard, PDB-CA) was 128 µg/mL and the “MIC of K20 in combination” value ([3]; in combination with chlotrimazole) was 8 µg/mL. The “MIC of K20 in combination” value ([3]; in combination with fluconazole) was 16 µg/mL, the “MIC of K20 in combination” value ([3]; in combination with itraconazole) was 32 µg/mL and the “MIC of K20 in combination” value ([3]; in combination with ketoconazole) was 32 µg/mL. For the same molecule, the “MIC of K20 in combination” value ([3]; in combination with metconazole) was 8 µg/mL, the “MIC of K20 in combination” value ([3]; in combination with posaconazole) was 16 µg/mL and the “MIC of K20 in combination” value ([3]; in combination with pyraclostrobin) was 16 µg/mL. The “MIC of K20 in combination” value ([3]; in combination with tioconazole) was 16 µg/mL and the “MIC of K20 in combination” value ([3]; in combination with voriconazole) was 4 µg/mL.
With `OC(Cn1cncn1)(Cn1cncn1)c1ccc(F)cc1F` [fluconazole] the MIC ([3]; checkerboard, PDB-CA) was over 24 µg/mL, the “MIC of azole in combination with K20” value ([3]; checkerboard) was 3 µg/mL and the “Effect (drug interaction class by FICI)” value [3] was “synergy”. The “FICI (Fractional Inhibitory Concentration Index)” value [3] was 0.18.
For `NCC1O[C@H](OC2C(N)CC(N)[C@@H](OC3O[C@H](CO)C(O)[C@@H](N)[C@H]3O)[C@H]2O)C(O)[C@@H](O)[C@@H]1O` (stereo partly drawn) [kanamycin A], the MIC ([7]; read-out: MIC) was 0.98 µg/mL (≈ 2.02 µM), the MIC ([8]; read-out: MIC) was 1.95 µg/mL (≈ 4.02 µM) and the “Relative Activity (zone of inhibition diameter)” value [21] was “+++”. For the same molecule, the “Relative Activity (zone of inhibition diameter)” value [22] was “+++” and the “Relative Activity (zone of inhibition diameter)” value [23] was “+++”.
